In patent publication US10981932B2, “Macrocyclic indole derivatives” (Bayer Aktiengesellschaft, priority 2016, dated 2021) one finds ring closure, yield of all isomers, IC50 and EC50 data, which are given here for ten compounds.

For data set [1] the following is noted: rcm bond, Grubbs 2nd generation catalyst.
Data set [2] has as its system SUDHL5. Briefly: Induction of cytotoxicity (CellTiter-Glo, 5 h), SUDHL5.
Data set [3] concerns SUDHL10. The data set can be described thus: Induction of cytotoxicity (CellTiter-Glo, 5 h), SUDHL10.
Data set [4] relates to A2780. Briefly: Anti-proliferative effect (CellTiter-Glo, 72 h), A2780. The data set is classed as cell-based. The note with it: A2780 cells, median, read-out: IC50 antiproliferation assay A2780 [M] (median). In outline:
(§1)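 Endpoint: CellTiter-Glo luminescence, 10 min after reagent addition. Treatment ran 72 h at 37 °C, humidified. Growth was referenced to a separately plated day 0 plate.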

In data set [5] the test system is SUDHL5. The data set can be described thus: Anti-proliferative effect (CellTiter-Glo, 72 h), SUDHL5. The note with it: SUDHL5 cells, antiproliferation, 72 h incubation, median, read-out: Antiproli SUDHL5 [M] (median). The data set is classed as cell-based. In a few lines: as §1
Data set [6] deals with MCL-1 (Homo sapiens, UniProt Q07820). The data set can be described thus: Protein-protein interaction assay MCL-1/Noxa BH3 peptide (MCL-1 assay), TR-FRET. The class given is binding. The note with it: MBP-MCL-1 / Noxa BH3-derived peptide, median. In outline:
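Steady-state competition, MCL-1/Noxa BH3, TR-FRET readout; 1 nM MBP-MCL-1, 11-point dose series 0.1 nM–20 μM; overnight 4 °C equilibration; 4-parameter IC50.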

For data set [7], the system named is SUDHL5. The data set can be described thus: Induction of caspase-3/7 activity (Caspase-Glo 3/7), SUDHL5. The class given is cell-based. Conditions: caspase-3/7 induction, SUDHL5 cells, 3 h treatment, median. In a few lines: (§2)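 A 3 h, 37 °C compound incubation precedes the Caspase-Glo 3/7 read. After subtracting medium-only signal, EC50s are fitted against the reference compound's maximal caspase induction.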

The subject of data set [8] is SUDHL10. Briefly: Anti-proliferative effect (CellTiter-Glo, 72 h), SUDHL10. The class given is cell-based. Conditions: SUDHL10 cells, antiproliferation, 72 h incubation, median, read-out: Antiproli SUDHL10 [M] (median). In a few lines:
as §1

Data set [9] deals with OPM2. Briefly: Anti-proliferative effect (CellTiter-Glo, 72 h), OPM2. The note with it: OPM2 cells, median, read-out: IC50 antiproliferation assay OPM2 [M] (median). The data set is classed as cell-based. In outline:
as §1

The test system of data set [10] is SUDHL10. The data set can be described thus: Induction of caspase-3/7 activity (Caspase-Glo 3/7), SUDHL10. The data set is classed as cell-based. The note with it: caspase-3/7 induction, SUDHL10 cells, 3 h treatment, median. In outline: as §2
The subject of data set [11] is MV-4-11. Briefly: Anti-proliferative effect (CellTiter-Glo, 72 h), MV-4-11. The class given is cell-based. Conditions: MV-4-11 cells, median, read-out: IC50 antiproliferation assay MV-4-11 [M] (median). In outline:
as §1

Where [12] appears, read: Homo sapiens, SU-DHL-5, 5 h, read-out: Cytotox SUDHL5 [M] (median), SUDHL5 cells, cytotoxicity induction, CellTiter-Glo, 5 h incubation, median.
The mark [13] stands for this setting: Homo sapiens, SU-DHL10, 5 h, read-out: Cytotox SUDHL10 [M] (median), SUDHL10 cells, cytotoxicity induction, CellTiter-Glo, 5 h incubation, median.
The mark [14] stands for this setting: read-out: Cytotox SUDHL5 [M] (median), SUDHL5 cells, cytotoxicity induction, CellTiter-Glo, 5 h incubation, median.
[15] abbreviates: read-out: Cytotox SUDHL10 [M] (median), SUDHL10 cells, cytotoxicity induction, CellTiter-Glo, 5 h incubation, median.

Structures can show the parent of a compound that is named as a salt. Where two headings read alike, the source gives them in different places.

Chain of MCL-1 (Q07820 whole entry): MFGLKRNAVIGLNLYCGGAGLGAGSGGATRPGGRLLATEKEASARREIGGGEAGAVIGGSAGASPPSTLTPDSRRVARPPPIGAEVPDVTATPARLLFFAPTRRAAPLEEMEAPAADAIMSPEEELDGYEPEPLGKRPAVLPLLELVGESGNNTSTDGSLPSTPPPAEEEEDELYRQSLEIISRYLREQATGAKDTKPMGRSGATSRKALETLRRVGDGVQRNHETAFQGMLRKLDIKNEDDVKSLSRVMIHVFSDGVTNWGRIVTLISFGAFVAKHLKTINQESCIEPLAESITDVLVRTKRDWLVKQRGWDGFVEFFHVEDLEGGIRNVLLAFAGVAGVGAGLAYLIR

In data set [1] (from C=CCN(Cc1ccccc1)c1c(-c2cccc3c(CCCOc4cccc5ccccc45)c(C(=O)OCC)n(CC=C)c23)c(C)nn1C, toluene, 6.11 mM, 90.0 °C, 5.5 h), `CCOC(=O)c1c(CCCOc2cccc3ccccc23)c2cccc3c2n1CC=CCN(Cc1ccccc1)c1c-3c(C)nn1C` registered a ring closure, yield of all isomers of 96.7%.

In [1] (from C=CCOCc1c(-c2cccc3c(CCCOc4cccc5ccccc45)c(C(=O)OCC)n(CC=C)c23)c(COC(C)C)nn1C, dichloromethane, 77.5 mM, 25.0 °C, 24.0 h), `CCOC(=O)c1c(CCCOc2cccc3ccccc23)c2cccc3c2n1CC=CCOCc1c-3c(COC(C)C)nn1C` registered a ring closure, yield of all isomers of 89.2%.

As to `CCOC(=O)c1c(CCCOc2cccc3ccccc23)c2cccc3c2n1CC=CCOCCc1c-3c(C)nn1C` (mixture of isomers), in [1] (from C=CCOCCc1c(-c2cccc3c(CCCOc4cccc5ccccc45)c(C(=O)OCC)n(CC=C)c23)c(C)nn1C, dichloromethane, 50.9 mM, 25.0 °C, 48.0 h), the ring closure, yield of all isomers was determined as 47.5%.

For the compound `Cn1nc(COc2ccc(N3CCOCC3)cc2)c2c1COCC=CCn1c(C(=O)O)c(CCCOc3cccc4ccccc34)c3cccc-2c31` (single isomer, unassigned; enantiomer 1) [Example 119, (+)-E/Z)-1-methyl-3-{[4-(morpholin-4-yl)phenoxy]methyl}-7-[3-(naphthalen-1-yloxy)propyl]-1,10,13,15-tetrahydropyrazolo[4′,3′:9,10][1,6]oxazacycloundecino[8,7,6-hi]indole-8-carboxylic Acid (Enantiomer 1)], the IC50 in data set [2] (setting [12]) is 2.85e-05 M; in data set [3] (setting [13]), above 3.3e-05 M; in data set [4] (Homo sapiens, A2780, 72 h), 1.21e-05 M; in [5] (Homo sapiens, SU-DHL-5, 72 h), 1.35e-05 M; in data set [6] it was 0.0213 µM; in [8] (Homo sapiens, SU-DHL10, 72 h), 2e-05 M. Moreover, the IC50 amounted to 6.62e-06 M in data set [9] (Homo sapiens, OPM-2, 72 h) and 8.87e-06 M in [11] (Homo sapiens, MV4-11, 72 h). In addition, the EC50 worked out at 19.5 µM in data set [7] (Homo sapiens, SU-DHL-5, 3 h) and 22.5 µM in data set [10] (Homo sapiens, SU-DHL10, 3 h).

As for `CCN(CC)S(=O)(=O)N1CCN(c2ccc(OCc3nn(C)c4c3-c3cccc5c(CCCOc6cccc7ccccc67)c(C(=O)O)n(c35)CCCCOC4)cc2)CC1` (single isomer, unassigned; enantiomer 2) [Example 1-5, 3-({4-[4-(diethysulfamoyl)piperazin-1-yl]phenoxy}methyl)-1-methyl-7-[3-(naphthalen-1-yloxy)propyl]-1,10,11,12,13,15-hexahydropyrazolo[4′,3′:9,10][1,6]oxazacycloundecino[8,7,6-hi]indole-8-carboxylic Acid (Enantiomer 2)], the IC50 in data set [2] (setting [14]) turned out to be 3.2e-06 M; in data set [3] (setting [15]), 4.77e-06 M; in data set [4], 6.24e-06 M; in data set [5] it was 7.67e-07 M; in data set [6], 0.00151 µM; in data set [8], 1.02e-06 M. Moreover, the IC50 turned out to be 1.13e-06 M in data set [9] and 7.2e-07 M in data set [11] (Homo sapiens, MV4-11, 72 h). For the same compound, the EC50 in data set [7] was found to be 2.52 µM; in [10], 2.62 µM.

As for `Cc1c2c(nn1C)CN(C)CCCn1c(C(=O)O)c(CCCOc3cccc4ccccc34)c3cccc-2c31` (single isomer, unassigned; enantiomer 2) [Example 1-35, 7,10,11-trimethyl-1-[3-(naphthalen-1-yloxy)propyl]-4,5,6,7,8,10-hexahydropyrazolo[3′,4′:7,8][1,5]diazecino[9,10,1-hi]indole-2-carboxylic Acid-N-ethylethanamine Salt (Enantiomer 2)], the IC50 in data set [2] (setting [14]) is 2.02e-05 M; in data set [3] (setting [15]) it was 1.18e-05 M; in [4], above 3.3e-05 M; in [5] it was 2.56e-05 M; in [6] it was 0.11 µM; in data set [8], 3.25e-05 M. Besides, the IC50 in data set [9] is above 3.3e-05 M; in data set [11] it was 1.96e-05 M. In addition, the EC50 in data set [7] was 26.9 µM; in data set [10], above 33 µM.

Regarding `COCc1c2c(nn1C)COCCCCn1c(C(=O)O)c(CCCOc3cccc4ccccc34)c3cccc-2c31` (single isomer, unassigned; enantiomer 2) [Example 101, 3-(methoxymethyl)-2-methyl-7-[3-(naphthalen-1-yloxy)propyl]-2,10,11,12,13,15-hexahydropyrazolo[4′,3′:9,10][1,6]oxazacycloundecino[8,7,6-hi]indole-8-carboxylic acid-N-ethylethanamine Salt (Enantiomer 2)], the IC50 in [2] (setting [14]) amounted to 2.03e-06 M; in data set [3] (setting [15]), 4e-06 M; in data set [4], 2.71e-05 M; in data set [5], 1.32e-06 M; in data set [6] it was 0.00185 µM; in data set [8], 4.47e-06 M. For the same compound, the IC50 was 4.37e-06 M in data set [9] (Homo sapiens, OPM-2, 72 h) and 1.85e-06 M in data set [11] (Homo sapiens, MV4-11, 72 h). Also, the EC50 in [7] turned out to be 1.74 µM; in [10] it was 3.43 µM.

As for `Cn1nc(COc2ccc(N3CCOCC3)cc2)c2c1COCC=CCn1c(C(=O)O)c(CCCOc3cccc4ccccc34)c3cccc-2c31` (single isomer, unassigned; enantiomer 2) [Example 120, (−)-(E/Z)-1-methyl-3-{[4-(morpholin-4-yl)phenoxy]methyl}-7-[3-(naphthalen-1-yloxy)propyl]-1,10,13,15-tetrahydropyrazolo[4′,3′:9,10][1,6]oxazacycloundecino[8,7,6-hi]indole-8-carboxylic Acid (Enantiomer 2)], the IC50 in data set [2] (setting [14]) was 3.21e-05 M; in [3] (setting [15]) it was above 3.3e-05 M; in data set [4] it was 1.11e-05 M; in data set [5] it was 1.08e-05 M; in data set [6] it was 0.0272 µM; in [8] it was 1.4e-05 M. The values for the IC50 in data set [9] and in [11] were 4.36e-06 M and 1.13e-05 M, respectively. For the same compound, the EC50 worked out at 31.4 µM in data set [7] and 18.4 µM in data set [10].

Regarding `CN1CCCn2c(C(=O)O)c(CCCOc3cccc4ccccc34)c3cccc(c32)-c2c(CNCC(F)(F)F)nn(C)c2C1` (single isomer, unassigned; enantiomer 2) [Example 131, 7,9-dimethyl-1-[3-(naphthalen-1-yloxy)propyl]-11-{[(2,2,2-trifluoroethyl)amino]methyl}-4,5,6,7,8,9-hexahydropyrazolo[3′,4′:7,8][1,5]diazecino[9,10,1-hi]indole-2-carboxylic acid-N-ethylethanamine Salt (Enantiomer 2)], the IC50 came out at 1.46e-05 M in [2] (setting [14]); 2.88e-05 M in [3] (setting [15]); 1.48e-05 M in data set [4]; 1.17e-05 M in data set [5]; 0.0191 µM in data set [6]; 1.16e-05 M in [8]. In addition, the IC50 is 1.71e-05 M in [9] and 6.24e-06 M in data set [11] (Homo sapiens, MV4-11, 72 h). In addition, the figures for the EC50 in data set [7] and in data set [10] were 25.9 µM and 30.9 µM, respectively.

As for `Cn1nc(CN2CCOCC2)c2c1COCCCCn1c(C(=O)O)c(CCCOc3cccc4ccccc34)c3cccc-2c31` (single isomer, unassigned; enantiomer 2) [Example 137, 1-methyl-3-(morpholin-4-ylmethyl)-7-[3-(naphthalen-1-yloxy)propyl]-1,10,11,12,13,15-hexahydropyrazolo[4′,3′:9,10][1,6]oxazacycloundecino[8,7,6-hi]indole-8-carboxylic Acid (Enantiomer 2)], the IC50 was 8.98e-06 M in data set [2] (setting [12]); 3.06e-05 M in data set [3] (setting [13]); above 3.3e-05 M in data set [4] (Homo sapiens, A2780, 72 h); 2.67e-06 M in [5] (Homo sapiens, SU-DHL-5, 72 h); 0.0107 µM in data set [6]; 5.9e-06 M in data set [8] (Homo sapiens, SU-DHL10, 72 h). In addition, the IC50 was above 3.3e-05 M in data set [9] (Homo sapiens, OPM-2, 72 h) and 6.78e-06 M in data set [11] (Homo sapiens, MV4-11, 72 h). The EC50 turned out to be 12.9 µM in data set [7] (Homo sapiens, SU-DHL-5, 3 h) and 22.1 µM in [10] (Homo sapiens, SU-DHL10, 3 h).
